We go through 24 molecules from US9139566B2, “Fluorine-18 and carbon-11 labeled radioligands for positron emission tomography (PET) imaging for LRRK2” (Genentech, Inc., priority 2011, dated 2015).

Chain of LRRK2 (Q5S007 whole entry): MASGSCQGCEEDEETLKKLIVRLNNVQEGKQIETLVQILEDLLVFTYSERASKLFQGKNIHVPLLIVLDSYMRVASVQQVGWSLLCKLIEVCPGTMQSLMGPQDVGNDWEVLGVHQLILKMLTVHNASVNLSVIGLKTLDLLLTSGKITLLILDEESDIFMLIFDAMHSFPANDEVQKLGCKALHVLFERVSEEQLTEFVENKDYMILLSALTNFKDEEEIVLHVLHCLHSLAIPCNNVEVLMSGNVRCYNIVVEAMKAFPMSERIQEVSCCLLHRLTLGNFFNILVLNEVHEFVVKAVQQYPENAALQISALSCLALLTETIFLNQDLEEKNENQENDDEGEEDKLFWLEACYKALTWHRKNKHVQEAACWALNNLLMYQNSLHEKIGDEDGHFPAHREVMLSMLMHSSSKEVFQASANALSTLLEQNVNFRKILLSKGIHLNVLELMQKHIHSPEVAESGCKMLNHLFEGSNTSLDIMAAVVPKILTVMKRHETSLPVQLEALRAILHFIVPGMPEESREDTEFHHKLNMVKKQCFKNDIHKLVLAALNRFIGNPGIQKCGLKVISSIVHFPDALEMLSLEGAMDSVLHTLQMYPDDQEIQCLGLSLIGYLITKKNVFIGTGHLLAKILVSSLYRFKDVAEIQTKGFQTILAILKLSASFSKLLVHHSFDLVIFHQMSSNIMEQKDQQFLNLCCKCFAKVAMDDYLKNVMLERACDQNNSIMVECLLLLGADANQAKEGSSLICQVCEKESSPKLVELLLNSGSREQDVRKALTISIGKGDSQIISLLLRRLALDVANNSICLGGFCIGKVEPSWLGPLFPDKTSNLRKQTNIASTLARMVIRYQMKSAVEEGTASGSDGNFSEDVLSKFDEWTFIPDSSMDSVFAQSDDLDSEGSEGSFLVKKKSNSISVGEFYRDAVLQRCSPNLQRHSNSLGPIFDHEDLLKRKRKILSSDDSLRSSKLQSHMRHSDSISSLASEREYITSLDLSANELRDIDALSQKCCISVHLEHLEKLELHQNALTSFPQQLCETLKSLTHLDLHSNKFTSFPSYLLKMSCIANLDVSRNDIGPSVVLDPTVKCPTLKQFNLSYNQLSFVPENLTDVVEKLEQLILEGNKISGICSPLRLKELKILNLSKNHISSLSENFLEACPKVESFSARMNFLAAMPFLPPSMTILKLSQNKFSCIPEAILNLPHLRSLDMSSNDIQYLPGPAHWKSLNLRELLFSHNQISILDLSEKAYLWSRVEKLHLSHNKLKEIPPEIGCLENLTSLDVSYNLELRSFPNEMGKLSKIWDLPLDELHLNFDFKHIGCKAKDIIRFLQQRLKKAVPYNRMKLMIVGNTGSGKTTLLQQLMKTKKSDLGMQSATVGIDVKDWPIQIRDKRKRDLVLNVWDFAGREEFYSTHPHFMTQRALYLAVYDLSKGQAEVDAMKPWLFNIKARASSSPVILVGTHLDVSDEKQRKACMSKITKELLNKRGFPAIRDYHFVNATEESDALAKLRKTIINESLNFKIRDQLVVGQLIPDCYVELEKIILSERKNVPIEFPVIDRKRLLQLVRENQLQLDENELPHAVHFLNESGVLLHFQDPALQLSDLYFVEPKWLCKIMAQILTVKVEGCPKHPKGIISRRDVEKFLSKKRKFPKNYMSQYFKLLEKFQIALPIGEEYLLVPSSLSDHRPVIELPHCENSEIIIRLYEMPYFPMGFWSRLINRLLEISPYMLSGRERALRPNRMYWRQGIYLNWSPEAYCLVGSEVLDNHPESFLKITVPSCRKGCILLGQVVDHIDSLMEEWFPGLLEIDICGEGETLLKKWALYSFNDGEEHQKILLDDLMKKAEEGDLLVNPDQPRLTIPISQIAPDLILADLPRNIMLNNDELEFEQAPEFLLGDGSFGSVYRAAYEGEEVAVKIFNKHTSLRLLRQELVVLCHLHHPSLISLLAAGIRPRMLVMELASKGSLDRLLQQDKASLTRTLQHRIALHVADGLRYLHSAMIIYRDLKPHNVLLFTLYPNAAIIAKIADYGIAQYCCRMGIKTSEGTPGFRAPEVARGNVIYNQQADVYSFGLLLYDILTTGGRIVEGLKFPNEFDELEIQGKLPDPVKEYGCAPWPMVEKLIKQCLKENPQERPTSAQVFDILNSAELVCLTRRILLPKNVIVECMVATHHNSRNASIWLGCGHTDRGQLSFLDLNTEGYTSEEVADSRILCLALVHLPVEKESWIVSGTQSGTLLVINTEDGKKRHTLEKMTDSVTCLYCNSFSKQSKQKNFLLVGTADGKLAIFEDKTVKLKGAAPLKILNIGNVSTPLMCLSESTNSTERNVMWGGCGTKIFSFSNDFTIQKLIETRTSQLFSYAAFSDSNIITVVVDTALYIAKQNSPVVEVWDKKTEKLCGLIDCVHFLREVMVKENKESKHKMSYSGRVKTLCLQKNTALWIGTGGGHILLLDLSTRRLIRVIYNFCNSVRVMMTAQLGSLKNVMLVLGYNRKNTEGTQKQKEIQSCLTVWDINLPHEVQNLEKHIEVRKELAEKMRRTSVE

The assay has as its target LRRK2 (Homo sapiens, UniProt Q5S007). As to the kind of experiment: LRRK2 affinity (Ki). Format: binding. The note with it: LRRK2 affinity (micromolar), Table 1.
Take `O=C(c1cc(OCCF)c(Nc2ncc(C(F)(F)F)c(NC3CC3)n2)cc1F)N1CCOCC1` [Compound 1, (4-(4-(cyclopropylamino)-5-(trifluoromethyl)pyrimidin-2-ylamino)-2-fluoro-5-(2-fluoroethoxy)phenyl)(morpholino) methanone]: the Ki (commonly a measure of affinity in units of concentration, obtained from inhibition or displacement) stood at 0.6 nM.

In turn, `CNc1nc(Nc2cc(C)c(C(=O)N3CCOCC3)cc2OCF)ncc1C(F)(F)F` [Compound 2, (5-(fluoromethoxy)-2-methyl-4-(4-(methylamino)-5-(trifluoromethyl)pyrimidin-2-ylamino)phenyl)(morpholino) methanone] registered an inhibitory constant (Ki) of 1 nM.

`CCNc1nc(Nc2cc(OCF)c(C(=O)N3CCCC3)cc2Cl)ncc1C(F)(F)F` [Compound 5, (5-chloro-4-(4-(ethylamino)-5-(trifluoromethyl)pyrimidin-2-ylamino)-2-(fluoromethoxy)phenyl)(pyrrolidin-1-yl)methanone] registered a Ki of 1.5 nM.

In turn, `CCNc1nc(Nc2cc(OC)c(C(=O)N3CCC(F)(F)C3)cc2OCF)ncc1C(F)(F)F` [Compound 6, (3,3-difluoropyrrolidin-1-yl)(4-(4-(ethylamino)-5-(trifluoromethyl)pyrimidin-2-ylamino)-5-(fluoromethoxy)-2-methoxyphenyl)methanone] displayed an inhibition constant (Ki) of 0.4 nM.

Turning to `CNc1nc(Nc2cc(C)c(C(=O)N3CCCC3)cc2OCF)ncc1C(F)(F)F` [Compound 7, (5-(fluoromethoxy)-2-methyl-4-(4-(methylamino)-5-(trifluoromethyl)pyrimidin-2-ylamino)phenyl)(pyrrolidin-1-yl)methanone], the Ki is 0.7 nM.

`CCNc1nc(Nc2cc(OC)c(C(=O)N3CCC(F)(F)C3)cc2OC)ncc1C(F)(F)F` [Compound 8, (3,3-difluoropyrrolidin-1-yl)(4-(4-(ethylamino)-5-(trifluoromethyl)pyrimidin-2-ylamino)-2,5-dimethoxyphenyl)methanone] had an inhibition constant (Ki) of 1.1 nM.

Molecule `CNc1nc(Nc2cc(OC)c(C(=O)N3CCC(F)(F)C3)cc2OCCF)ncc1C(F)(F)F` [Compound 9, (3,3-difluoropyrrolidin-1-yl)(5-(2-fluoroethoxy)-2-methoxy-4-((4-(methylamino)-5-(trifluoromethyl)pyrimidin-2-yl)amino)phenyl)methanone] came in with a Ki of 1.5 nM.

Take `CCNc1nc(Nc2cc(F)c(CN3CCOCC3)cc2OCCF)ncc1C(F)(F)F` [Compound 10, N4-ethyl-N2-(5-fluoro-2-(2-fluoroethoxy)-4-(morpholinomethyl)phenyl)-5-(trifluoromethyl)pyrimidine-2,4-diamine]: the affinity corresponds to a Ki of 1.5 nM.

In turn, `CNc1nc(Nc2cc(OC)c(C(=O)N3CCCCC3)cc2OCF)ncc1C(F)(F)F` [Compound 11, (5-(fluoromethoxy)-2-methoxy-4-(4-(methylamino)-5-(trifluoromethyl)pyrimidin-2-ylamino)phenyl)(piperidin-1-yl)methanone] showed a Ki of 1.6 nM.

Regarding `CCNc1nc(Nc2cc(F)c(C(=O)N3CCOCC3)cc2OCCF)ncc1C(F)(F)F` [Compound 12, (4-(4-(ethylamino)-5-(trifluoromethyl)pyrimidin-2-ylamino)-2-fluoro-5-(2-fluoroethoxy)phenyl)(morpholino) methanone], the Ki was determined as 2 nM.

`CNc1nc(Nc2cc(C)c(C(=O)N3CCOCC3)cc2OCCF)ncc1C(F)(F)F` [Compound 13, (5-(2-fluoroethoxy)-2-methyl-4-(4-(methylamino)-5-(trifluoromethyl)pyrimidin-2-ylamino)phenyl)(morpholino) methanone] gave a Ki of 2.3 nM.

`CNc1nc(Nc2cc(OC)c(C(=O)N3CCCC3)cc2OCF)ncc1C(F)(F)F` [Compound 14, (5-(fluoromethoxy)-2-methoxy-4-(4-(methylamino)-5-(trifluoromethyl)pyrimidin-2-ylamino)phenyl)(pyrrolidin-1-yl)methanone] showed a Ki of 3.2 nM.

Regarding `CNc1nc(Nc2ccc(S(C)(=O)=O)cc2OCCF)ncc1C(F)(F)F` [Compound 15, N2-(2-(2-fluoroethoxy)-4-(methylsulfonyl)phenyl)-N4-methyl-5-(trifluoromethyl)pyrimidine-2,4-diamine], the Ki was found to be 3.3 nM.

`CCNc1nc(Nc2cc(OCF)c(C(=O)N3CCCC3)cc2F)ncc1C(F)(F)F` [Compound 16, (4-(4-(ethylamino)-5-(trifluoromethyl)pyrimidin-2-ylamino)-5-fluoro-2-(fluoromethoxy)phenyl)(pyrrolidin-1-yl)methanone] yielded a Ki of 3.4 nM.

Molecule `CNc1nc(Nc2cc(F)c(C(=O)N3CCOCC3)cc2OCCF)ncc1C(F)(F)F` [Compound 17, (2-fluoro-5-(2-fluoroethoxy)-4-(4-(methylamino)-5-(trifluoromethyl)pyrimidin-2-ylamino)phenyl)(morpholino) methanone] had a Ki of 3.5 nM.

`CNc1nc(Nc2cc(F)c(CN3CCOCC3)cc2OCCF)ncc1C(F)(F)F` [Compound 18, N2-(5-fluoro-2-(2-fluoroethoxy)-4-(morpholinomethyl)phenyl)-N4-methyl-5-(trifluoromethyl)pyrimidine-2,4-diamine] yielded a Ki of 3.7 nM.

With `CNc1nc(Nc2cc(OC)c(C(=O)N(C)C)cc2OCF)ncc1C(F)(F)F` [Compound 19, 5-(fluoromethoxy)-2-methoxy-N,N-dimethyl-4-(4-(methylamino)-5-(trifluoromethyl)pyrimidin-2-ylamino)benzamide], affinity was put at a Ki of 4 nM.

Take `CNc1nc(Nc2cc(OC)c(C(=O)N3CCCC3)cc2OCCF)ncc1C(F)(F)F` [Compound 20, (5-(2-fluoroethoxy)-2-methoxy-4-(4-(methylamino)-5-(trifluoromethyl)pyrimidin-2-ylamino)phenyl)(pyrrolidin-1-yl)methanone]: affinity was put at a Ki of 4.7 nM.

In turn, `CNc1nc(Nc2ccc(CN3CCOCC3)cc2OCCF)ncc1C(F)(F)F` [Compound 21, N2-(2-(2-fluoroethoxy)-4-(morpholinomethyl)phenyl)-N4-methyl-5-(trifluoromethyl)pyrimidine-2,4-diamine] registered a Ki of 6.6 nM.

`CNc1nc(Nc2cc(F)c(C(=O)N3CCCC3)cc2OCF)ncc1C(F)(F)F` [Compound 22, (2-fluoro-5-(fluoromethoxy)-4-(4-(methylamino)-5-(trifluoromethyl)pyrimidin-2-ylamino)phenyl)(pyrrolidin-1-yl)methanone] came in with a Ki of 6.5 nM.

Molecule `COc1nc(Nc2cc(C)c(C(=O)N3CCCC3)cc2OCF)ncc1Cl` [Compound 24, (4-(5-chloro-4-methoxypyrimidin-2-ylamino)-5-(fluoromethoxy)-2-methylphenyl)(pyrrolidin-1-yl)methanone] showed a Ki of 11 nM.

The molecule `COc1nc(Nc2ccc(CN3CCOCC3)cc2OCCF)ncc1Cl` [Compound 25, 5-chloro-N-(2-(2-fluoroethoxy)-4-(morpholinomethyl)phenyl)-4-methoxypyrimidin-2-amine] displayed a Ki of 12 nM.

With `COc1nc(Nc2ccc(S(C)(=O)=O)cc2OCCF)ncc1Cl` [Compound 26, 5-chloro-N-(2-(2-fluoroethoxy)-4-(methylsulfonyl)phenyl)-4-methoxypyrimidin-2-amine], the Ki is 12 nM.

In turn, `CNc1nc(Nc2ccc(S(C)(=O)=O)cc2OCCF)ncc1Cl` [Compound 27, 5-chloro-N2-(2-(2-fluoroethoxy)-4-(methylsulfonyl)phenyl)-N4-methylpyrimidine-2,4-diamine] yielded a Ki of 12 nM.
